Earlier results on one compound are cited in patent publication US20150224078A1, “Methods for the Treatment of Lung Diseases with Mast Cell Stabilizers” (Patara Pharma, LLC, priority 2014, published 2015).

The conditions of the data set: Richards et al, 1987.

For the compound `O=C(O)c1cc(=O)c2c(OCC(O)COc3cccc4oc(C(=O)O)cc(=O)c34)cccc2o1` [cromolyn sodium], the oral bioavailability entry was “about 1%”.
